From article PMC3358306 (PLoS ONE, 2012)

Molecular target: T1, afRio1 (Rio1 kinase) (Archaeoglobus fulgidus, UniProt O28471)
T1 construct: full-length
Assay: thermal shift (Thermofluor), Tm […] to […] °C
Assay type: binding

T1 sequence (O28471 whole entry): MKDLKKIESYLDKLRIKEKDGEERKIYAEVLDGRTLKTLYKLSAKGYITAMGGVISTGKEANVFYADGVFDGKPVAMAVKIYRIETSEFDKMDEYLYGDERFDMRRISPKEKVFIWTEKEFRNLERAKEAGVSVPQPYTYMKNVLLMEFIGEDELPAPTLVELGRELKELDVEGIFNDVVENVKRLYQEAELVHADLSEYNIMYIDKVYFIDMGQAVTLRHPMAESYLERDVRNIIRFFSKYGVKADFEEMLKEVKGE

## NC(=O)c1cn([C@@H]2O[C@H](CO)[C@@H](O)[C@H]2O)c2ncnc(N)c12 [sangivamycin]
  thermal shift (Thermofluor), Tm 76 to 82 °C: 82 °C
